Source: ChEMBL document CHEMBL5291721, “A preclinical secondary pharmacology resource illuminates target-adverse drug reaction associations of marketed drugs” (Nat Commun, 2023)

Legend:
[1] = target: T1, Alpha-1A adrenergic receptor (Homo sapiens, UniProt P35348)
T1 sequence (P35348 whole entry): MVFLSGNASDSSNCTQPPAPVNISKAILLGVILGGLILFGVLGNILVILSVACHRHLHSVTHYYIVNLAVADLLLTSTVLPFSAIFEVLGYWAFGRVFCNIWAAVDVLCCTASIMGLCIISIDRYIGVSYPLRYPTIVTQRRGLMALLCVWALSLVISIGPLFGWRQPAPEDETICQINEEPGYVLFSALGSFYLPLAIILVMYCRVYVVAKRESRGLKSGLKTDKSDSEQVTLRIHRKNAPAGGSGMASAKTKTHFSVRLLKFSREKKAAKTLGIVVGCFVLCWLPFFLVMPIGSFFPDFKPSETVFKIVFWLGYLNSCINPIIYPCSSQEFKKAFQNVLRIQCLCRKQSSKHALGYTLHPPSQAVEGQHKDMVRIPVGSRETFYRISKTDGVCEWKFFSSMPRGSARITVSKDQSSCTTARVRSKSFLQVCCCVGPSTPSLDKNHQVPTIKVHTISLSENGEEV

[2] = target: Beta-2 adrenergic receptor (Homo sapiens, UniProt P07550)
Beta-2 adrenergic receptor, sequence (P07550 whole entry): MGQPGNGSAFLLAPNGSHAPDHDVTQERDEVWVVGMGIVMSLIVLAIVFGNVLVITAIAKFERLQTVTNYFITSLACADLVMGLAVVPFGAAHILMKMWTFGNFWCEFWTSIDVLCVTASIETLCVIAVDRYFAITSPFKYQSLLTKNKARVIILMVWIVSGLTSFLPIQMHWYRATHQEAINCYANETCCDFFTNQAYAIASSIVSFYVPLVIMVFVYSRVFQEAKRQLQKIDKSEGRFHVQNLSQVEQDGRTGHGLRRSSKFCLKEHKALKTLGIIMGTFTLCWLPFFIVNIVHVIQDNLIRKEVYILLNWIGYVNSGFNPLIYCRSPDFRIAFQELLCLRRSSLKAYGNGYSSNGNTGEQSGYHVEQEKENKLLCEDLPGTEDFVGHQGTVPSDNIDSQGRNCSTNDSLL

Melanocortin receptor 4 = Melanocortin receptor 4 (Homo sapiens, UniProt P32245)
Melanocortin receptor 4, sequence (P32245 whole entry): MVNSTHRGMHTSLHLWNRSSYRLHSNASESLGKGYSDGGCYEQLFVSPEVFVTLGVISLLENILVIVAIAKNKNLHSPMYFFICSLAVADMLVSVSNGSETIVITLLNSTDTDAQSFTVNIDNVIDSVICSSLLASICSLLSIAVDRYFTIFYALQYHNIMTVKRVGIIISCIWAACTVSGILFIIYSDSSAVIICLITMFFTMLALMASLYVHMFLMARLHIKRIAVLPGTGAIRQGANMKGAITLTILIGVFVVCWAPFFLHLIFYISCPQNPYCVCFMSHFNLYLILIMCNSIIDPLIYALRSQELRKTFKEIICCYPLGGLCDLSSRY

D(3) dopamine receptor = D(3) dopamine receptor (Homo sapiens, UniProt P35462)
D(3) dopamine receptor, sequence (P35462 whole entry): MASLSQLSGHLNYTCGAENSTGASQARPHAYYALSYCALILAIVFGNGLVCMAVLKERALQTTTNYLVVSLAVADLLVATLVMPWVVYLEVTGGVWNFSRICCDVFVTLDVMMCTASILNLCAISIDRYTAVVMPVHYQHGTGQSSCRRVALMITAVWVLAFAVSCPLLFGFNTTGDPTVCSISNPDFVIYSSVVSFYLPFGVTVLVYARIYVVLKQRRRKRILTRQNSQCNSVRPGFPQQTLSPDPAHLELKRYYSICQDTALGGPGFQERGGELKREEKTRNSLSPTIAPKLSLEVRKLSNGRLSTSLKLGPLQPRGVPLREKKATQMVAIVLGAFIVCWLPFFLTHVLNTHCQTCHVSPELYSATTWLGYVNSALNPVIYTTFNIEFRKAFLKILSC

[3] = target: T2, 5-hydroxytryptamine receptor 1A (Homo sapiens, UniProt P08908)
T2 sequence (P08908 whole entry): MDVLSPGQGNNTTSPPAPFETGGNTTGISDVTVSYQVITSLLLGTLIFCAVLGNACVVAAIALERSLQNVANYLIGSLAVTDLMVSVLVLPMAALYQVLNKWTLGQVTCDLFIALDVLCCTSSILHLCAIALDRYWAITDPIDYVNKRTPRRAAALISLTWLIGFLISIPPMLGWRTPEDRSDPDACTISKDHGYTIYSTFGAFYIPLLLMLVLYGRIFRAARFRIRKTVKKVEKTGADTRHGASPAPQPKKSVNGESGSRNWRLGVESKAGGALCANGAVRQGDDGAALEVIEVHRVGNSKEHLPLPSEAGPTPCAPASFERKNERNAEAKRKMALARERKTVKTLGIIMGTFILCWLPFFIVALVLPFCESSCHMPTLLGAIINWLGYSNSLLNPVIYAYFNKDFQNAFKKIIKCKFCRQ

[4] = target: T1, Alpha-1A adrenergic receptor; type: functional, cell-based
Endothelin-1 receptor = target: T3, Endothelin-1 receptor (Homo sapiens, UniProt P25101)
T3 sequence (P25101 whole entry): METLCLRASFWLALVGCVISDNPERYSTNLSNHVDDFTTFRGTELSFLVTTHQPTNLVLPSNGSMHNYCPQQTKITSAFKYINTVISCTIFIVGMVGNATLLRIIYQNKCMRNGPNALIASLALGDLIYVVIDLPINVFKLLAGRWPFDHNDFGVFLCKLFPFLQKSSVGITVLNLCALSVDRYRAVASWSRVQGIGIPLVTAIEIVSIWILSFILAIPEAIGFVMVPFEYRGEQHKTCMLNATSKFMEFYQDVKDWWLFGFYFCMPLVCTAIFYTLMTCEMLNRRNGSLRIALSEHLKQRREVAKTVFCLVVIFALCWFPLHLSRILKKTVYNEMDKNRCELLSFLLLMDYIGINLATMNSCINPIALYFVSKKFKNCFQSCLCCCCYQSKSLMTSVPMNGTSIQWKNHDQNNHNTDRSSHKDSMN

[5] = target: T1, Alpha-1A adrenergic receptor; type: functional, cell-based; remark: listed apart in the source
Cannabinoid receptor 1 = Cannabinoid receptor 1 (Homo sapiens, UniProt P21554)
Cannabinoid receptor 1, sequence (P21554 whole entry): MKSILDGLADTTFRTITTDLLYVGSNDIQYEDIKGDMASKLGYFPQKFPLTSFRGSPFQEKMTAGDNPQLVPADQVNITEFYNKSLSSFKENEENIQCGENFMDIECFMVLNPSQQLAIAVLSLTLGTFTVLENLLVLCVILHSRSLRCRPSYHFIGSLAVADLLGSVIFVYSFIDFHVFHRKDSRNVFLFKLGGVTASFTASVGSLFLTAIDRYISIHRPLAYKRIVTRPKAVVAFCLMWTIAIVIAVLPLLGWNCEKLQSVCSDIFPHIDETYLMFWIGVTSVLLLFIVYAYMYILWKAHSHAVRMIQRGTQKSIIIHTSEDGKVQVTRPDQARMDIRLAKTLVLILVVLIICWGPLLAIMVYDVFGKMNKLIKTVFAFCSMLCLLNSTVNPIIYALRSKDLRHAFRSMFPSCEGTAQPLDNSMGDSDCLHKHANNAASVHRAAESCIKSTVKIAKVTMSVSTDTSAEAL

Mu-type opioid receptor = Mu-type opioid receptor (Homo sapiens, UniProt P35372)
Mu-type opioid receptor, sequence (P35372 whole entry): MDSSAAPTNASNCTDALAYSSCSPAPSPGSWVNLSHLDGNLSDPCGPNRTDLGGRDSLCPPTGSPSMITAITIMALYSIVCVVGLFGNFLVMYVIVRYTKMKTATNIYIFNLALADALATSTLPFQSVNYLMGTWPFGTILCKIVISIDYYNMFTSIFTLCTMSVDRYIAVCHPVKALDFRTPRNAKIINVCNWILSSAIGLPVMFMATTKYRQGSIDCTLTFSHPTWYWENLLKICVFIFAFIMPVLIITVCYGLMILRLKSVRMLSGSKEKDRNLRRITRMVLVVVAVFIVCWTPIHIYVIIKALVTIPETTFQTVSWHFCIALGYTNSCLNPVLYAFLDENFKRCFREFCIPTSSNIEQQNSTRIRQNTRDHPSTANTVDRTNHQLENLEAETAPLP

[6] = target: 5-hydroxytryptamine receptor 2B (Homo sapiens, UniProt P41595)
5-hydroxytryptamine receptor 2B, sequence (P41595 whole entry): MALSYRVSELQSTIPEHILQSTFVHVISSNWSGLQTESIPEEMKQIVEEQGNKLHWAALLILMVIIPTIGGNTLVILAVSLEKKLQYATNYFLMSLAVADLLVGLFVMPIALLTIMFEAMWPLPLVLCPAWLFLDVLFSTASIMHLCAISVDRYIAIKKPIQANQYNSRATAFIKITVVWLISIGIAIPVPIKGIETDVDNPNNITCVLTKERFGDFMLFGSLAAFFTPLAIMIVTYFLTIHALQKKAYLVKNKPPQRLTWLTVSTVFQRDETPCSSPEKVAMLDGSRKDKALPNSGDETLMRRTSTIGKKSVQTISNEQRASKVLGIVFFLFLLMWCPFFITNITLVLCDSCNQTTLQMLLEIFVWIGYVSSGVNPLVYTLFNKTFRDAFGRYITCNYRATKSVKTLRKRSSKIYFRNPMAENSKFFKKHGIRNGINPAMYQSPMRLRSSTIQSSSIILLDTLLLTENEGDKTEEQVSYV

[7] = target: Gamma-aminobutyric acid receptor subunit alpha-1 (Rattus norvegicus, UniProt P62813); type: functional
Gamma-aminobutyric acid receptor subunit alpha-1, sequence (P62813 whole entry): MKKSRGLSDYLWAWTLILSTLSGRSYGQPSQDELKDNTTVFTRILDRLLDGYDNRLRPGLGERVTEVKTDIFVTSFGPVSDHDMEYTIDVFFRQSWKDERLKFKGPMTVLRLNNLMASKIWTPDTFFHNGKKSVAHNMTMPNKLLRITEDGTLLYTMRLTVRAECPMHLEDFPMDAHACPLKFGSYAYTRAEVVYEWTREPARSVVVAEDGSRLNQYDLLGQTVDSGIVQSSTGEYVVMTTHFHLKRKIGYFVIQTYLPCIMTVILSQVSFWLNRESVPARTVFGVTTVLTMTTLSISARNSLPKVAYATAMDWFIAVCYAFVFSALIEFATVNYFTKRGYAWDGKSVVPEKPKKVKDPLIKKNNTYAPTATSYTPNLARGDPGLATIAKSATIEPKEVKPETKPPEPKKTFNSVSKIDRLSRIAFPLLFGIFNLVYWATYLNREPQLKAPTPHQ

Progesterone receptor = target: T4, Progesterone receptor (Homo sapiens, UniProt P06401); type: functional
T4 sequence (P06401 whole entry): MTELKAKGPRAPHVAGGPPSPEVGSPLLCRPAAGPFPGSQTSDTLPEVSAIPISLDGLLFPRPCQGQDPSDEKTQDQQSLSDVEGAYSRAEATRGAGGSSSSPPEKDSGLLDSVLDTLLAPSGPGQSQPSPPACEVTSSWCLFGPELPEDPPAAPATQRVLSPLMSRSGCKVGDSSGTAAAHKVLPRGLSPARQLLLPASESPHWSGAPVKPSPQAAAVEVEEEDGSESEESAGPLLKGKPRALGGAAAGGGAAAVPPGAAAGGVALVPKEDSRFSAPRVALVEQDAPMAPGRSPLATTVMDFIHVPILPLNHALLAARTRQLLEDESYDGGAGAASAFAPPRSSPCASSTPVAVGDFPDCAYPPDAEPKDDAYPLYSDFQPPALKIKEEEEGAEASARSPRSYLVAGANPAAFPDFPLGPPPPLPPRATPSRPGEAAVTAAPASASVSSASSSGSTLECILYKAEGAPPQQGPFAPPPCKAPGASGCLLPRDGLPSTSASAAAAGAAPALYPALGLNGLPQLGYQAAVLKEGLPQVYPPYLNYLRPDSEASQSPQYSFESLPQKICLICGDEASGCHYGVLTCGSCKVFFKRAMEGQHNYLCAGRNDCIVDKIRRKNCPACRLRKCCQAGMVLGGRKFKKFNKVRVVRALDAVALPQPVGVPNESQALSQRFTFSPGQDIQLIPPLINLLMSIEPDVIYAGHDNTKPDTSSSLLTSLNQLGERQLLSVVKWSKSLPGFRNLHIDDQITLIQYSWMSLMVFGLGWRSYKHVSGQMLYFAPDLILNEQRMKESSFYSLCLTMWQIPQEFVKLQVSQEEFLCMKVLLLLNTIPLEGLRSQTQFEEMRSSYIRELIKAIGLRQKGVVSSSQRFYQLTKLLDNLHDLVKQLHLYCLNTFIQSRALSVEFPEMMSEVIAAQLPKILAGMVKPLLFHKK
Note: assay procedure not described here.

Row | SMILES | AC50 [1] [µM] | AC50 [2] [µM] | AC50 (Melanocortin receptor 4) [µM] | AC50 (D(3) dopamine receptor) [µM] | AC50 [3] [µM] | AC50 [4] [µM] | AC50 (Endothelin-1 receptor) [µM] | AC50 [5] [µM] | AC50 (Cannabinoid receptor 1) [µM] | AC50 (Mu-type opioid receptor) [µM] | AC50 [6] [µM] | AC50 [7] [µM] | AC50 (Progesterone receptor) [µM]
1 | CCCCc1ncc(/C=C(\Cc2cccs2)C(=O)O)n1Cc1ccc(C(=O)O)cc1 [EPROSARTAN] | > 10 | > 10 | > 10 | > 10 | > 10 | > 30 | > 30 | > 30 | > 10 | > 10 | > 10 | > 10 | –
2 | COc1ccc2c3c1O[C@H]1[C@@H](O)C=C[C@H]4[C@@H](C2)N(C)CC[C@@]341 [CODEINE] | > 10 | > 10 | > 30 | > 10 | > 10 | > 30 | > 30 | > 30 | > 10 | – | > 10 | > 10 | –
3 | CCc1c(Cl)c(O)c(Cl)c(O)c1C(=O)O[C@H]1[C@H](O)[C@H](OC)[C@H](OC/C2=C\C=C\C[C@H](O)/C(C)=C/[C@H](CC)[C@@H](O[C@@H]3OC(C)(C)[C@@H](OC(=O)C(C)C)[C@H](O)[C@@H]3O)/C(C)=C/C(C)=C/C[C@@H]([C@@H](C)O)OC2=O)O[C@@H]1C [FIDAXOMICIN] | – | > 10 | > 30 | > 30 | > 10 | – | > 30 | – | > 10 | > 10 | > 10 | > 10 | > 30
4 | CCCN(CCC)C(=O)C(CCC(=O)O)NC(=O)c1ccccc1 (centres undefined) [PROGLUMIDE] | > 30 | > 30 | > 30 | > 30 | > 10 | – | > 30 | – | > 10 | > 30 | > 10 | > 10 | > 30
5 | N#Cc1ccc([C@H]2CCc3cncn32)c(F)c1 [OSILODROSTAT] | – | > 10 | > 10 | > 10 | > 10 | – | > 10 | – | > 10 | > 10 | > 10 | > 10 | –
6 | CCCc1nc(C(C)(C)O)c(C(=O)OCc2oc(=O)oc2C)n1Cc1ccc(-c2ccccc2-c2nnn[nH]2)cc1 [OLMESARTAN MEDOXOMIL] | > 10 | > 10 | > 50 | > 10 | > 10 | > 30 | > 50 | > 30 | – | > 10 | > 10 | > 10 | –
7 | CC[C@@H]1C(=O)OC[C@@H]1Cc1cncn1C [PILOCARPINE] | > 10 | > 10 | > 30 | > 30 | > 10 | > 30 | – | > 30 | 16.1 | > 30 | > 10 | > 10 | –
8 | CC(C)(C)c1cc(C(C)(C)C)c(NC(=O)c2c[nH]c3ccccc3c2=O)cc1O [IVACAFTOR] | > 10 | > 10 | 25.6 | > 30 | > 10 | – | – | – | > 10 | > 30 | > 10 | > 10 | –
9 | COc1ccccc1OCCNCC(O)c1ccc(C)c(S(N)(=O)=O)c1 (centres undefined) [AMOSULALOL] | 0.3 | 0.1 | – | 0.12 | 0.052 | 0.32 | > 30 | 0.24 | – | – | > 30 | > 30 | > 30
10 | CN1CCN(CC/C=C2/c3ccccc3Sc3ccc(S(=O)(=O)N(C)C)cc32)CC1 [THIOTHIXENE] | 0.0244 | > 10 | > 30 | 0.0139 | – | > 30 | > 30 | 0.31 | – | > 10 | 0.857 | > 10 | –
11 | CN1C(=O)C(O)N=C(c2ccccc2)c2cc(Cl)ccc21 (centres undefined) [TEMAZEPAM] | > 10 | > 10 | > 30 | > 10 | > 10 | > 30 | > 30 | – | > 10 | > 30 | > 10 | 0.044 | –
12 | C[C@H](N)[C@H](O)c1cccc(O)c1 [METARAMINOL] | 30 | > 30 | > 10 | > 30 | – | – | – | – | > 10 | > 30 | > 30 | > 10 | > 10
